Data from the NIST ThermoML archive (doi:10.1021/je0497247).

Assays:
[1] = 100 kPa, Liquid; for viscosity: Capillary tube (Ostwald / Ubbelohde) method; for mass density: Pycnometric method
[2] = wn = mass fraction of the nth substance listed; settings: 100 kPa, Liquid; for mass density: Pycnometric method; for viscosity: Capillary tube (Ostwald / Ubbelohde) method

O=C(O)c1ccccc1 [benzoic acid]
[1]
Settings | mass density [kg/m3] | thermal conductivity [W/m/K] | viscosity [mPa·s]
400.3 K | – | – | 1.372
401.3 K | 1089.5 | – | –
406.8 K | – | 0.139 | –
409.3 K | – | – | 1.238
410.3 K | 1080.2 | – | –
418.3 K | – | – | 1.117
419.3 K | 1069.8 | – | –
424.4 K | – | 0.137 | –
427.2 K | – | – | 1.026
428.2 K | 1060.2 | – | –
432.1 K | 1055 | – | 0.953
444.9 K | – | 0.134 | –
447.1 K | 1036 | – | 0.802
465.1 K | – | 0.132 | –

O=C(O)c1ccccc1 [benzoic acid] + O
[2]
Settings | mass density [kg/m3] | thermal conductivity [W/m/K] | viscosity [mPa·s]
373 K, w1 = 0.1 | – | 0.659 | –
374.6 K, w1 = 0.05 | – | 0.671 | –
379.1 K, w1 = 0.1 | 974.1 | – | –
379.6 K, w1 = 0.05 | 963.7 | – | –
380.6 K, w1 = 0.1 | – | – | 0.319
381.1 K, w1 = 0.05 | – | – | 0.288
391 K, w1 = 0.2 | – | 0.649 | –
392.9 K, w1 = 0.1 | 961 | – | –
393.6 K, w1 = 0.05 | – | 0.675 | –
393.6 K, w1 = 0.4 | – | 0.575 | –
393.9 K, w1 = 0.8 | – | 0.199 | –
394.2 K, w1 = 0.1 | – | 0.662 | –
394.6 K, w1 = 0.05 | 951.9 | – | –
395.9 K, w1 = 0.1 | – | – | 0.272
397.6 K, w1 = 0.05 | – | – | 0.256
400.3 K, w1 = 0.2 | 963.5 | – | –
400.3 K, w1 = 1 | – | – | 1.372
400.8 K, w1 = 0.4 | 988.8 | – | –
400.9 K, w1 = 0.8 | 1050.1 | – | –
401.3 K, w1 = 1 | 1089.5 | – | –
401.6 K, w1 = 0.6 | 1013.8 | – | –
401.8 K, w1 = 0.2 | – | – | 0.329
402.3 K, w1 = 0.4 | – | – | 0.501
402.4 K, w1 = 0.8 | – | – | 0.931
403.1 K, w1 = 0.6 | – | – | 0.708
406.8 K, w1 = 1 | – | 0.139 | –
409.2 K, w1 = 0.2 | – | 0.65 | –
409.2 K, w1 = 0.4 | – | 0.571 | –
409.3 K, w1 = 1 | – | – | 1.238
410.3 K, w1 = 1 | 1080.2 | – | –
410.9 K, w1 = 0.1 | – | 0.67 | –
412.1 K, w1 = 0.1 | 945.4 | – | –
413.2 K, w1 = 0.8 | – | 0.197 | –
413.3 K, w1 = 0.05 | – | 0.676 | –
413.4 K, w1 = 0.05 | 935.5 | – | –
413.8 K, w1 = 0.2 | 950.8 | – | –
414.8 K, w1 = 0.4 | 975.1 | – | –
414.8 K, w1 = 0.8 | 1035 | – | –
415.1 K, w1 = 0.1 | – | – | 0.236
415.9 K, w1 = 0.6 | 999.2 | – | –
416.4 K, w1 = 0.05 | – | – | 0.219
416.8 K, w1 = 0.2 | – | – | 0.274
417.8 K, w1 = 0.4 | – | – | 0.383
418 K, w1 = 0.2 | – | 0.651 | –
418.3 K, w1 = 1 | – | – | 1.117
418.8 K, w1 = 0.8 | – | – | 0.69
418.9 K, w1 = 0.6 | – | – | 0.547
419.3 K, w1 = 1 | 1069.8 | – | –
420.1 K, w1 = 0.4 | – | 0.549 | –
424.4 K, w1 = 1 | – | 0.137 | –
427.2 K, w1 = 1 | – | – | 1.026
428.2 K, w1 = 1 | 1060.2 | – | –
428.4 K, w1 = 0.1 | 929.6 | – | –
430.1 K, w1 = 0.4 | – | 0.568 | –
431.3 K, w1 = 0.8 | 1018.8 | – | –
431.4 K, w1 = 0.1 | – | – | 0.211
431.9 K, w1 = 0.2 | 933.7 | – | –
432.1 K, w1 = 1 | 1055 | – | 0.953
432.6 K, w1 = 0.4 | 955 | – | –
433.1 K, w1 = 0.05 | 915.2 | – | –
433.1 K, w1 = 0.8 | – | 0.192 | –
433.9 K, w1 = 0.6 | 981.1 | – | –
434.3 K, w1 = 0.8 | – | – | 0.542
434.9 K, w1 = 0.2 | – | – | 0.234
435.6 K, w1 = 0.4 | – | – | 0.309
436.1 K, w1 = 0.05 | – | – | 0.194
436.9 K, w1 = 0.6 | – | – | 0.399
444.9 K, w1 = 0.1 | 912.6 | – | –
444.9 K, w1 = 1 | – | 0.134 | –
447.1 K, w1 = 1 | 1036 | – | 0.802
447.9 K, w1 = 0.1 | – | – | 0.194
449.4 K, w1 = 0.8 | 1000.5 | – | –
450.8 K, w1 = 0.05 | 896.3 | – | –
451 K, w1 = 0.8 | – | 0.188 | –
452.1 K, w1 = 0.4 | 932 | – | –
452.4 K, w1 = 0.2 | 912 | – | –
452.4 K, w1 = 0.8 | – | – | 0.438
453.4 K, w1 = 0.6 | 959.5 | – | –
453.8 K, w1 = 0.05 | – | – | 0.177
455.1 K, w1 = 0.4 | – | – | 0.263
455.4 K, w1 = 0.2 | – | – | 0.206
456.4 K, w1 = 0.6 | – | – | 0.334
465.1 K, w1 = 1 | – | 0.132 | –
